Data from ChEMBL document CHEMBL1139078, “ortho-Substituted azoles as selective and dual inhibitors of VEGF receptors 1 and 2” (Bioorg Med Chem Lett, 2007).

Tests used:
[1] = Intrinsic permeability across Caco-2 cell monolayers; conditions: human
[2] = biological target: T1, Vascular endothelial growth factor receptor 1 (Homo sapiens, UniProt P17948); assay: Inhibition of VEGFR1 by HTRF assay
Target sequence in this assay (P17948 whole entry, looked up): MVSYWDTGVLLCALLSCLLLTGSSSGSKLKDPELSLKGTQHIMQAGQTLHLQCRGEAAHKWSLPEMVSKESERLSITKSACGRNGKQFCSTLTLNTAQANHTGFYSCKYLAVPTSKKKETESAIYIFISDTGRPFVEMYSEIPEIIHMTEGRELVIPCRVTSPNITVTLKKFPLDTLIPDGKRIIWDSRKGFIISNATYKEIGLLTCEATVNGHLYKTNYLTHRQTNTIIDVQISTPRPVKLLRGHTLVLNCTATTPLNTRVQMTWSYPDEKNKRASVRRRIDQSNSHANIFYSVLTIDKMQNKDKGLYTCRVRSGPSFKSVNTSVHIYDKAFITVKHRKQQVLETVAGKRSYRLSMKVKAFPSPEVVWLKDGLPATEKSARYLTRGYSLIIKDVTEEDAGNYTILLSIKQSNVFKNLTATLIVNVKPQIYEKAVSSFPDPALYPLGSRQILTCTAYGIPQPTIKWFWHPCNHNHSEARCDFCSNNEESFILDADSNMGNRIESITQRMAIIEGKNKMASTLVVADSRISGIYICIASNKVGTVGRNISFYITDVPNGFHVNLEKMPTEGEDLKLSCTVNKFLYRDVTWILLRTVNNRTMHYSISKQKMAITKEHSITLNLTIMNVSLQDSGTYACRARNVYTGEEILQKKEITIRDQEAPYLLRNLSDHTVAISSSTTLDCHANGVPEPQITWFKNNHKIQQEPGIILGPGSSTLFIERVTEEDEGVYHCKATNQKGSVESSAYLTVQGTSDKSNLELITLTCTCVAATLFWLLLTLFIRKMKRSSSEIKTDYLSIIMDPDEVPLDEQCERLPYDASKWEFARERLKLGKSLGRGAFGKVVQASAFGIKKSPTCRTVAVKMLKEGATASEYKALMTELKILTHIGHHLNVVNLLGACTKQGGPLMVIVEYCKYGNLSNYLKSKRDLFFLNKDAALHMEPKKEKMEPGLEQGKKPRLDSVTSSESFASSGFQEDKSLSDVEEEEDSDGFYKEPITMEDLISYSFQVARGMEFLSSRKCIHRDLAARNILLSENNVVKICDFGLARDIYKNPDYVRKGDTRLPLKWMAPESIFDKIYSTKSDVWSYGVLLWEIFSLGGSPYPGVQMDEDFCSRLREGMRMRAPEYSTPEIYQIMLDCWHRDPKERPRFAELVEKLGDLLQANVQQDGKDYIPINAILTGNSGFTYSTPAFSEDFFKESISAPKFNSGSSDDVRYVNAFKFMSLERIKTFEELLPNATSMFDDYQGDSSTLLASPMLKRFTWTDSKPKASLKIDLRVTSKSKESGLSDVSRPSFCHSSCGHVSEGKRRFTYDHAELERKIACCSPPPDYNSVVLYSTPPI

[3] = biological target: T2, Vascular endothelial growth factor receptor 2 (Homo sapiens, UniProt P35968); assay: Inhibition of VEGFR2 by cell-based assay; assay type: functional
T2 sequence (P35968 whole entry): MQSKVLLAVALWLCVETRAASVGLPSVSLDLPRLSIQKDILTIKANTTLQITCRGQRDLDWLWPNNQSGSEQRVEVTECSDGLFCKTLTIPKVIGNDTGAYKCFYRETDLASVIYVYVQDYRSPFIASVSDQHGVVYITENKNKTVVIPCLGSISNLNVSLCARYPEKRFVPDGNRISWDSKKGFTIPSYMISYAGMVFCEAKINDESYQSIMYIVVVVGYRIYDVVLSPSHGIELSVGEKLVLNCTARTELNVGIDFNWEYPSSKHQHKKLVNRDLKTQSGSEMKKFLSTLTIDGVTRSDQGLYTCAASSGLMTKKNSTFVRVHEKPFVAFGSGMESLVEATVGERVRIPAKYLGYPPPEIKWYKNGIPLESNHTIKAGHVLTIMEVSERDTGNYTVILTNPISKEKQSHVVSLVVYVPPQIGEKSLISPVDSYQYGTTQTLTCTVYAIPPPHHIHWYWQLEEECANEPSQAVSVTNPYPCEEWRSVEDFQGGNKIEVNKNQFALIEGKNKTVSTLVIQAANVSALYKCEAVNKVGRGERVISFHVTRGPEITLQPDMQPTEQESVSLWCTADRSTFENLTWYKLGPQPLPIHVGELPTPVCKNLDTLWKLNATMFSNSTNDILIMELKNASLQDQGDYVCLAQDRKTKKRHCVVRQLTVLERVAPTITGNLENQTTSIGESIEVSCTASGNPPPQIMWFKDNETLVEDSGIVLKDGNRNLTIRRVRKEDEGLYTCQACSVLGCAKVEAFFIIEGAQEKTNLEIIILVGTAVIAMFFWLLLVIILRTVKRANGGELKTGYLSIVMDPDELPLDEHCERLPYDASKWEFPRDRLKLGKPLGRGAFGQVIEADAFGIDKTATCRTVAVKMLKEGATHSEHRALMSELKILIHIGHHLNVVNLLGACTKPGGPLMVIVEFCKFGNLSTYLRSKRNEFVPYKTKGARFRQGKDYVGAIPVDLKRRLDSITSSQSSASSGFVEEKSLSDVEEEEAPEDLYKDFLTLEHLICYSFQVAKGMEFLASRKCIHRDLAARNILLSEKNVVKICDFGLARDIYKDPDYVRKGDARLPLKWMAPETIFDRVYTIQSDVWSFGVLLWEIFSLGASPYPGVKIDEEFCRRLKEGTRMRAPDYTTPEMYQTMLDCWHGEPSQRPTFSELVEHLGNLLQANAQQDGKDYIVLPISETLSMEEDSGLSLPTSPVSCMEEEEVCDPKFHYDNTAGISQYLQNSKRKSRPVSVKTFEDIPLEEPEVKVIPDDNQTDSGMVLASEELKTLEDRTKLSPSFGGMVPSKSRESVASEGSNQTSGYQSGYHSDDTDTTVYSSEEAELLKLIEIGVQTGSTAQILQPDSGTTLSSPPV

[4] = biological target: T2, Vascular endothelial growth factor receptor 2; assay: Inhibition of VEGFR2 by HTRF assay
[5] = biological target: T2, Vascular endothelial growth factor receptor 2; assay: Inhibition of VEGFR2 by [32P]ATP-competitive radioassay
[6] = biological target: T1, Vascular endothelial growth factor receptor 1; assay: Inhibition of VEGFR1 by HTRF assay
Target sequence in this assay (P17948 whole entry): as the sequence (P17948 whole entry, looked up) above

[7] = biological target: T2, Vascular endothelial growth factor receptor 2; assay: Inhibition of VEGFR2 by HTRF assay

Row | Papp [1] [×10⁻⁶ cm/s] | IC50 [2] [nM] | IC50 [3] [nM] | IC50 [4] [nM] | Ki [5] [nM] | IC50 [6] [nM] | IC50 [7] [nM] | SMILES
1 | 2.88 |  |  |  |  |  |  | O=C(Nc1cnc2ccccc2c1)c1ccccc1NCc1ccncc1
2 |  | > 10000 | > 10000 | > 10000 |  |  |  | Cc1noc(NCc2ccncc2)c1C(=O)Nc1cccc(Cl)c1
3 | 0.95 | > 10000 | 1650 | 250 |  |  |  | Cn1cnc(NCc2ccncc2)c1C(=O)Nc1ccc(Cl)cc1
4 | 6.2 | 270 | 75 | 180 |  |  |  | CC(C)c1ccc(NC(=O)c2c(NCc3ccncc3)ncn2C)cc1
5 |  | > 10000 | > 10000 | 3770 |  |  |  | Cn1cnc(NCc2ccncc2)c1C(=O)Nc1ccc(-c2ccccc2)cc1
6 |  | > 10000 | > 10000 | 4290 |  |  |  | Cn1cnc(NCc2ccncc2)c1C(=O)Nc1ccc(Oc2ccccc2)cc1
7 |  | 350 | 920 | 230 |  |  |  | Cn1cnc(NCc2ccncc2)c1C(=O)Nc1cnc2ccccc2c1
8 | 7.03 | 550 | 96 | 370 |  |  |  | Cn1cnc(NCc2ccncc2)c1C(=O)Nc1ccc(Cl)c(Cl)c1
9 | 8.22 | 350 | 57 | 210 |  |  |  | COc1ccc(NC(=O)c2c(NCc3ccncc3)ncn2C)cc1OC
10 |  | 690 | 110 | 580 |  |  |  | Cn1cnc(NCc2ccncc2)c1C(=O)Nc1ccc(C(F)(F)F)c(C(F)(F)F)c1
11 |  | 1060 | 1340 | 750 |  |  |  | Cn1ncc(NCc2ccncc2)c1C(=O)Nc1cccc(C(F)(F)F)c1
12 |  | 420 | 210 | 280 |  |  |  | Cc1noc(NCc2ccncc2)c1C(=O)Nc1ccc(C(C)(C)C)cc1
13 |  | 760 | 350 | 440 |  |  |  | Cc1noc(NCc2ccncc2)c1C(=O)Nc1ccc(C(C)C)cc1
14 |  | > 10000 | > 10000 | 5730 |  |  |  | Cn1cnc(NCc2ccncc2)c1C(=O)Nc1ccc2cn[nH]c2c1
15 | 6.15 | 1260 | 170 | 950 |  |  |  | Cn1cnc(NCc2ccncc2)c1C(=O)Nc1ccc(Cl)c(C(F)(F)F)c1
16 | 7.1 | 510 | 64 | 210 | 160 |  |  | Cc1cc(NC(=O)c2c(NCc3ccncc3)ncn2C)ccc1C(F)(F)F
17 |  | > 10000 | > 10000 | > 10000 |  |  |  | Cn1ncc(NCc2cccnc2)c1C(=O)Nc1cccc(C(F)(F)F)c1
18 |  |  | > 10000 |  |  | 5290 | > 10000 | Cn1ncc(NCc2ccc3c(c2)OCO3)c1C(=O)Nc1cccc(C(F)(F)F)c1
19 |  | > 10000 | > 10000 | > 10000 |  |  |  | Cn1ncc(NCc2cccnc2)c1C(=O)Nc1ccc(C(F)(F)F)cc1
20 |  | 920 | 130 | 840 |  |  |  | Cn1ncc(NCc2ccncc2)c1C(=O)Nc1ccc(C(F)(F)F)c(C(F)(F)F)c1
21 |  | > 10000 | > 10000 | 5800 |  |  |  | Cc1noc(NCc2ccncc2)c1C(=O)Nc1ccc(Cc2ccccc2)cc1
22 |  | 1220 | 3540 | 940 |  |  |  | Cc1noc(NCc2ccncc2)c1C(=O)Nc1cnc2ccccc2c1
23 |  | 310 | 130 | 280 |  |  |  | Cn1ncc(NCc2ccncc2)c1C(=O)Nc1ccc(C(F)(F)F)cc1

Row | Papp [1] [×10⁻⁶ cm/s] | IC50 [2] [nM] | IC50 [3] [nM] | IC50 [4] [nM] | Ki [5] [nM] | IC50 [6] [nM] | IC50 [7] [nM] | SMILES
24 |  | 2440 | 470 | 2060 |  |  |  | Cn1ncc(NCc2ccncc2)c1C(=O)Nc1cccc(OC(F)(F)F)c1
25 |  | 1250 | 930 | 970 |  |  |  | Cc1noc(NCc2ccncc2)c1C(=O)Nc1ccc(Cl)c(Cl)c1
26 |  | 3350 | > 10000 | 1190 |  |  |  | COc1ccc(NC(=O)c2c(C)noc2NCc2ccncc2)cc1OC
27 |  | > 10000 | 1000 | 4580 |  |  |  | Cn1ncc(NCc2ccncc2)c1C(=O)Nc1ccc(Cl)cc1
28 |  | 440 | 88 | 290 |  |  |  | CC(C)c1ccc(NC(=O)c2c(NCc3ccncc3)cnn2C)cc1
29 |  | > 10000 | > 10000 | > 10000 |  |  |  | Cn1ncc(NCc2ccncc2)c1C(=O)Nc1ccc(-c2ccccc2)cc1
30 |  | 1440 | 590 | 870 |  |  |  | Cc1cc(NC(=O)c2c(C)noc2NCc2ccncc2)ccc1C(F)(F)F
31 |  | > 10000 | > 10000 | > 10000 |  |  |  | Cn1ncc(NCc2ccncc2)c1C(=O)Nc1ccc(Oc2ccccc2)cc1
32 |  | > 10000 | > 10000 | 5570 |  |  |  | Cn1ncc(NCc2ccncc2)c1C(=O)Nc1ccc(Cc2ccccc2)cc1
33 |  | 510 | 91 | 350 |  |  |  | COc1ccc(NC(=O)c2c(NCc3ccncc3)cnn2C)cc1OC
34 |  | 440 | 79 | 210 |  |  |  | Cn1ncc(NCc2ccncc2)c1C(=O)Nc1ccc(C(F)(F)F)c(Cl)c1
35 |  | 1230 | 210 | 1120 |  |  |  | Cn1ncc(NCc2ccncc2)c1C(=O)Nc1cc(C(F)(F)F)cc(C(F)(F)F)c1
36 | 5.52 | 560 | 69 | 330 |  |  |  | Cc1cc(NC(=O)c2c(NCc3ccncc3)cnn2C)ccc1C(F)(F)F
37 |  |  | > 10000 |  |  | 2270 | 3120 | Cn1cnc(NCc2ccc3c(c2)OCO3)c1C(=O)Nc1cccc(C(F)(F)F)c1
38 |  |  | > 10000 |  |  | 1680 | 2550 | Cn1cnc(NCc2ccc3c(c2)OCO3)c1C(=O)Nc1ccc(C(F)(F)F)cc1
39 |  | 1690 | 2270 | 1560 |  |  |  | Cc1noc(NCc2ccncc2)c1C(=O)Nc1cccc(C(F)(F)F)c1
40 |  | 790 | 550 | 650 |  |  |  | Cn1cnc(NCc2ccncc2)c1C(=O)Nc1cccc(C(F)(F)F)c1
41 |  | 6000 | 9600 | 1980 |  |  |  | Cn1cnc(NCc2ccncc2)c1C(=O)Nc1ccc(C(F)(F)F)cc1
42 |  | 1110 | 350 | 760 |  |  |  | Cn1cnc(NCc2ccncc2)c1C(=O)Nc1cccc(OC(F)(F)F)c1
43 | 6.73 | 360 | 82 | 250 |  |  |  | Cn1ncc(NCc2ccncc2)c1C(=O)Nc1ccc(Cl)c(Cl)c1
44 |  | 560 | 180 | 370 |  |  |  | Cc1noc(NCc2ccncc2)c1C(=O)Nc1ccc(C(F)(F)F)cc1
45 |  | > 10000 | > 10000 | 6020 |  |  |  | Cn1cnc(NCc2ccncc2)c1C(=O)Nc1ccc2c(c1)CN=N2
46 |  | 1350 | 1250 | 840 |  |  |  | Cc1ccc(NC(=O)c2c(NCc3ccncc3)ncn2C)c(F)c1

Row | Papp [1] [×10⁻⁶ cm/s] | IC50 [2] [nM] | IC50 [3] [nM] | IC50 [4] [nM] | Ki [5] [nM] | IC50 [6] [nM] | IC50 [7] [nM] | SMILES
47 |  | > 10000 | > 10000 | > 10000 |  |  |  | Cc1noc(NCc2ccncc2)c1C(=O)Nc1ccc(Oc2ccccc2)cc1
48 |  | > 10000 | > 10000 | > 10000 |  |  |  | Cn1cnc(NCc2cccnc2)c1C(=O)Nc1cccc(C(F)(F)F)c1
49 |  | > 10000 | > 10000 | > 10000 |  |  |  | Cn1cnc(NCc2cccnc2)c1C(=O)Nc1ccc(C(F)(F)F)cc1
50 |  | 1430 | 110 | 1150 |  |  |  | Cn1cnc(NCc2ccncc2)c1C(=O)Nc1ccc(OC(F)(F)F)cc1
51 |  | > 10000 | > 10000 | 5570 |  |  |  | Cn1cnc(NCc2ccncc2)c1C(=O)Nc1ccc(Cc2ccccc2)cc1
52 |  | 1120 | 740 | 650 |  |  |  | Cn1cnc(NCc2ccncc2)c1C(=O)NCc1ccc2c(c1)OCO2
53 |  | 520 | 1140 | 280 |  |  |  | Cn1ncc(NCc2ccncc2)c1C(=O)Nc1cnc2ccccc2c1
54 |  | 1110 | 320 | 560 |  |  |  | Cc1noc(NCc2ccncc2)c1C(=O)Nc1ccc(C(F)(F)F)c(Cl)c1
55 |  | > 10000 | > 10000 | 4230 |  |  |  | Cc1noc(NCc2ccncc2)c1C(=O)Nc1ccc(C(F)(F)F)c(C(F)(F)F)c1
56 | 3.6 | 350 | 88 | 290 |  |  |  | Cn1cnc(NCc2ccncc2)c1C(=O)Nc1ccc(C(F)(F)F)c(Cl)c1
57 |  | 1060 | 150 | 740 |  |  |  | Cn1cnc(NCc2ccncc2)c1C(=O)Nc1cc(C(F)(F)F)cc(C(F)(F)F)c1
58 | 5.93 | 610 |  | 340 |  |  |  | Cc1ccc(NC(=O)c2c(NCc3ccncc3)ncn2C)cc1C(F)(F)F
59 |  | 3220 | > 10000 | 2060 |  |  |  | Cn1ncc(NCc2ccncc2)c1C(=O)Nc1cccc(Cl)c1
60 | 5.4 |  |  |  |  |  |  | Cn1ncc([N+](=O)[O-])c1C(=O)O
61 |  | 3220 | > 10000 | 2060 |  |  |  | Cn1cnc(NCc2ccncc2)c1C(=O)Nc1cccc(Cl)c1
62 |  | 930 | 102 | 660 |  |  |  | Cc1ccc(NC(=O)c2c(NCc3ccncc3)cnn2C)cc1C(F)(F)F
63 | 5.42 | 1870 | 64 | 730 | 170 |  |  | Cn1ncc(NCc2ccncc2)c1C(=O)Nc1ccc(OC(F)(F)F)cc1
64 | 6.25 | 180 | 45 | 130 |  |  |  | Cn1ncc(NCc2ccncc2)c1C(=O)Nc1ccc(C(C)(C)C)cc1
65 |  | > 10000 | > 10000 | > 10000 |  |  |  | Cc1noc(NCc2ccncc2)c1C(=O)Nc1ccc(-c2ccccc2)cc1
66 |  | 3550 | 910 | 2120 |  |  |  | Cc1noc(NCc2ccncc2)c1C(=O)Nc1ccc(OC(F)(F)F)cc1
67 |  | 1360 | 110 | 1130 |  |  |  | Cn1ncc(NCc2ccncc2)c1C(=O)Nc1ccc(Cl)c(C(F)(F)F)c1
68 |  | > 10000 | > 10000 | > 10000 |  |  |  | Cc1noc(NCc2ccncc2)c1C(=O)Nc1ccc(Cl)cc1
